Results reported in patent publication US5714467A, “Antibacterial and antimalarial hybrid peptides” (The Rockefeller University, priority 1993, dated 1998).

Experiments:
S. aureus = test: microdilution broth assay (NCCLS M7-A1), aerobes; type: cell-based, Staphylococcus aureus; details: 14 strains
Procedure: (§1) Antimicrobial susceptibility testing was performed using a microdilution broth assay according to the guidelines of the National Committee for Clinical Laboratory Standards (NCCLS) Document M7-A1 (NCCLS. 1990).
(§2) The peptide powder as an acetate salt was weighted on an analytical balance and transferred to a polypropylene tube. A solution was prepared at a concentration of 1.024 mg/ml by dissolving the powder in autoclaved (121° C., 20 psi, 20 minutes) deionized water. The peptide solution was used immediately, stored for up to ten days at 4° C., or stored long-term at -70° C. in 1 ml aliquots in polypropylene cryovials.
(§3) Mueller-Hinton broth (MHB) (BBL catalog number 11443) was used in the microtiter plates for diluting the peptide stock solution and for diluting the bacterial inoculum. […]
(§4) Inoculum was prepared by taking a sample of bacteria from a 16-20 hours plate culture and inoculating into 5 ml of (MHB) (BBL catalog number 95834) to an absorbance reading of approximately 0.02 at 600 nm (Ab600) on a BECKMAN® DU-64 spectrophotometer. The culture was incubated at 35°-37° C. with shaking (New Brunswick incubator shaker Model G25) and the growth monitored spectrophotometrically until it reached mid-logarithmic phase (Ab600 of approximately 0.06). This absorbance represents approximately 1×10^8 colony-forming units per milliliter (CFUs/ml). […]

Acinetobacter = test: microdilution broth assay (NCCLS M7-A1), aerobes; type: cell-based; details: 12 strains
Procedure: as §1, §2
(§5) Mueller-Hinton broth (MHB) (BBL catalog number 11443) was used in the microtiter plates for diluting the peptide stock solution and for diluting the bacterial inoculum. MBH 5 ml prepared tubes (BBL catalog number 95834) were used to culture an overnight plate of bacteria to the logarithmic phase of growth for inoculating the microtiter plates.
(§6) Inoculum was prepared by taking a sample of bacteria from a 16-20 hours plate culture and inoculating into 5 ml of (MHB) (BBL catalog number 95834) to an absorbance reading of approximately 0.02 at 600 nm (Ab600) on a BECKMAN® DU-64 spectrophotometer. The culture was incubated at 35°-37° C. with shaking (New Brunswick incubator shaker Model G25) and the growth monitored spectrophotometrically until it reached mid-logarithmic phase (Ab600 of approximately 0.06). This absorbance represents approximately 1×10^8 colony-forming units per milliliter (CFUs/ml). The culture was then diluted to approximately 1×10^6 CFUs/ml in autoclaved MHB (BBL catalog number 11443) to produce the inoculum. A sample of the inoculating culture was diluted in 3 mM phosphate buffer (pH 7.2) through a series of 1:10 dilutions and the 10^-4 and 10^-5 dilutions were plated, incubated overnight at 35°-37° C., and counted the next day to verify inoculum size.
(§7) Microtiter plates (Corning manufacturer number 2585096) were prepared with the use of the BECKMAN® Biomek 1000 (Beckman Instruments, Somerset, N.J.) automated laboratory workstation in combination with manual techniques. The microtiter plate was filled with diluent broth using the Biomek 1000 instrument. Peptide stock solution was manually added to the top drug well of the microtiter plate using a Rainin Pipetman Model P-200. The peptide was serially diluted in two-fold dilutions using the Biomek 1000 instrument. One hundred microliters of the standardized bacterial inoculum was added to every well of the microtiter plates (except the blanks) using an Eppendorf Repeater Model 4780 pipet equipped with an Eppendorf 5 ml combitip (catalog number 22 26 130-4).
(§8) The final concentrations of peptide solution in the wells ranged from 0.25 ug/ml to 256 ug/ml. The final concentration of bacteria in the wells was 1-5×10^5 CFUs/ml. The final volume in the wells was 200 μl.
(§9) The microtiter plates were incubated overnight (16-20 hours) at 35°-37° C. in a Precision mechanical convection oven incubator Model 30M. Plates were not stacked more than four high.

Group A Streptococcus = test: microdilution broth assay (NCCLS M7-A1), aerobes; type: cell-based; details: 15 strains
Procedure: as §1, §2, §5, §6, §7, §8, §9

Streptococcus pneumoniae = test: microdilution broth assay (NCCLS M7-A1), aerobes; type: cell-based; details: 11 strains
Procedure: as §1, §2, §5, §6, §7, §8, §9

Xanthomonas = test: microdilution broth assay (NCCLS M7-A1), aerobes; type: cell-based; details: 12 strains
Procedure: as §1, §2, §5, §6, §7, §8, §9

s. epidermidis = test: microdilution broth assay (NCCLS M7-A1), aerobes; type: cell-based; details: 12 strains
Procedure: as §1, §2, §5, §6, §7, §8, §9

p. aeruginosa = test: microdilution broth assay (NCCLS M7-A1), aerobes; type: cell-based, Pseudomonas aeruginosa; details: 13 strains
Procedure: as §1, §2, §3, §4

T. mentagrophytes = test: microdilution broth assay, dermatophytes; type: cell-based; details: M3 broth
Procedure: (§10) Antimicrobial susceptibility testing was performed using a microdilution broth assay as with the aerobes.
(§11) Antibiotic medium 3 (M3) (BBL catalog number 10932) was used in the microtiter plates for diluting the peptide stock solution and for diluting the bacterial inoculum.
(§12) The dermatophyte cultures were grown on Potato Dextrose Agar for one week. A one centimeter square of growth is teased from the leading edge of the fungus and placed in 2 ml of sterile water in a screw-capped glass tube with glass beads (2 mm) on the bottom. The tubes were vortexed for 20 seconds each and placed in a shaker incubator (New Brunswick incubator shaker Model G25) at 37° C. for 30 minutes. Tubes were removed from the shaker incubator and allowed to settle for 10 minutes. The supernatant was read on a BECKMAN® DU-64 spectrophotometer at 530 nm for percent transmission and adjusted with M3 broth to a transmission of 65%. This culture was then diluted 1:10 in M3 broth for inoculating the microtiter plates.
(§13) The microtiter plates were incubated for 48 hours at 30° C. in a PRECISION® mechanical convection oven incubator Model 4. Plates are never stacked more than four high.
(§14) Candida albicans, a yeast was used for comparison.

T. rubrum ATCC 36262 = test: microdilution broth assay, dermatophytes; type: cell-based; details: 48 hours at 30° C., M3 broth
Procedure: as §10, §11, §12, §13, §14

C. albicans ATCC 14053 = test: microdilution broth assay, dermatophytes (yeast for comparison); type: cell-based, Candida albicans; details: 48 hours at 30° C., M3 broth
Procedure: as §10, §11, §12, §13, §14

Porphyromonas gingivalis = test: anaerobic microdilution broth assay (NCCLS M11-T2), oral pathogen; type: cell-based
Procedure: (§15) Antimicrobial susceptibility testing was performed using a microdilution broth assay according to the guidelines of the National Committee for Clinical Laboratory Standards (NCCLS) Document M11-T2 (NCCLS, 1989).
(§16) One-half strength Brain Heart Infusion (BHI) (BBL catalog number 11059) supplemented with hemin and menadione is used in the microtiter plates for diluting the peptide stock solution and for diluting the bacterial inoculum.
(§17) Inoculum is prepared by culturing bacteria from an overnight plate in 5 ml of supplemented BHI. The next day the overnight broth culture is read on a BECKMAN® DU-64 spectrophotometer at 630 nm and diluted with supplemented BHI until an absorbance of 0.02 is reached which represents approximately 1×10^6 colony-forming units per milliliter (CFUs/ml). This culture is used to inoculate the microtiter plates. A sample of the inoculating culture is diluted in supplemented BHI through a series of 1:10 dilutions and the 10^-5 and 10^-6 dilutions are plated, incubated 48 hours at 35°-37° C. anaerobically, and counted to verify inoculum size.
(§18) The microtiter plates are incubated anaerobically for 48 hours at 35°-37° C. in a COY® anaerobic chamber Type A. Plates are never stacked more than four high.

E. coli ATCC 25922 = test: anaerobic microdilution broth assay (NCCLS M11-T2), standard organism; type: cell-based, Escherichia coli; details: standard in the P. gingivalis test, anaerobic 48 hours
Procedure: as §15, §16, §17, §18
E. coli ATCC 25922 was used as a standard.

Gly-Ile-Gly-Lys-Phe-Leu-Lys-Lys-Ala-Lys-Lys-Gly-Ile-Gly-Ala-Val-Leu-Lys-Val-Leu-Thr-Thr-Gly-Leu
MIC RANGE, S. aureus (S. aureus): 2 to 4 µg/mL | MIC RANGE, Acinetobacter (Acinetobacter): 2 to 4 µg/mL | MIC RANGE, Group A Streptococcus (Group A Streptococcus): 2 to 4 µg/mL | MIC RANGE, Streptococcus pneumoniae (Streptococcus pneumoniae): 8 to 16 µg/mL | MIC RANGE, Xanthomonas (Xanthomonas): 2 to 8 µg/mL | MIC RANGE, s. epidermidis (s. epidermidis): 2 to 4 µg/mL | MIC RANGE, p. aeruginosa (p. aeruginosa): 2 to 32 µg/mL | MIC, T. mentagrophytes ATCC 4808 (T. mentagrophytes; strain ATCC 4808, 48 hours at 30° C.): 16 µg/mL | MIC, T. mentagrophytes ATCC 18748 (T. mentagrophytes; strain ATCC 18748, 48 hours at 30° C.): 16 µg/mL | MIC, T. rubrum ATCC 36262 (T. rubrum ATCC 36262): 256 µg/mL | MIC, C. albicans ATCC 14053 (C. albicans ATCC 14053): 64 µg/mL | MIC, P. gingivalis strain 9-14K-1 (Porphyromonas gingivalis; strain 9-14K-1, anaerobic 48 hours): 16 µg/mL | MIC, P. gingivalis strain 381 (Porphyromonas gingivalis; strain 381, anaerobic 48 hours): 64 µg/mL | MIC, P. gingivalis strain 2561 (Porphyromonas gingivalis; strain 2561, anaerobic 48 hours): 16 µg/mL | MIC, P. gingivalis strain A7A1-28 (Porphyromonas gingivalis; strain A7A1-28, anaerobic 48 hours): 32 µg/mL | MIC, P. gingivalis strain ATCC 33277 (Porphyromonas gingivalis; strain ATCC 33277, anaerobic 48 hours): 64 to 128 µg/mL | MIC, P. gingivalis strain ESO-127 (Porphyromonas gingivalis; strain ESO-127, anaerobic 48 hours): 4 to 8 µg/mL | MIC, P. gingivalis strain FAY-19M-1 (Porphyromonas gingivalis; strain FAY-19M-1, anaerobic 48 hours): 16 µg/mL | MIC, P. gingivalis strain VAG-1 (Porphyromonas gingivalis; strain VAG-1, anaerobic 48 hours): 64 µg/mL | MIC, P. gingivalis strain VAG-4 (Porphyromonas gingivalis; strain VAG-4, anaerobic 48 hours): 32 µg/mL | MIC, P. gingivalis strain W-50 (Porphyromonas gingivalis; strain W-50, anaerobic 48 hours): 32 µg/mL | MIC, E. coli ATCC 25922 (E. coli ATCC 25922): 8 µg/mL
